In paper PMC6631596, “Analgesic and Anti-Inflammatory Activities of Quercetin-3-methoxy-4′-glucosyl-7-glucoside Isolated from Indian Medicinal Plant Melothria heterophylla” (Medicines, 2019):

How the values were obtained:
COX-1 = molecular target: T1, COX-1 (Ovis aries, UniProt P05979); assay: Cayman COX inhibitor screening assay (prostaglandin ELISA); assay type: biochemical
T1 construct: gene PTGS1; ovine COX-1
T1 sequence (P05979 25-600): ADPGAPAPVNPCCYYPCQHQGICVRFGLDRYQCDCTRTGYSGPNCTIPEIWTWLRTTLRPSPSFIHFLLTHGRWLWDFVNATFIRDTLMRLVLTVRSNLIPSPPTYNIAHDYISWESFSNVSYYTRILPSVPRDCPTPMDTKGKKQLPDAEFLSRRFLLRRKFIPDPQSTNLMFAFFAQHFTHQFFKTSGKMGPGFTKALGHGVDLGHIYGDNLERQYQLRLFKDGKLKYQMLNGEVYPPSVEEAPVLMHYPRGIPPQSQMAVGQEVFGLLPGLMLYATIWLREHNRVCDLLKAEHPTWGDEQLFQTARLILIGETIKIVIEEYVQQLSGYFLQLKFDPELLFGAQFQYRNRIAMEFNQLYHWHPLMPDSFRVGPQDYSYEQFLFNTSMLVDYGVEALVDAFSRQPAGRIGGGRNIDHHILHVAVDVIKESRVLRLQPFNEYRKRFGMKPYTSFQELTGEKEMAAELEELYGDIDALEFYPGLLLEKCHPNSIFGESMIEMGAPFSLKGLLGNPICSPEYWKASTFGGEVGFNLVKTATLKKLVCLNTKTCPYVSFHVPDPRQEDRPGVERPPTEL

COX-2 = molecular target: T2, COX-2 (Homo sapiens, UniProt P35354); assay: as above; assay type: biochemical
T2 construct: gene PTGS2; human recombinant COX-2
T2 sequence (P35354 18-604): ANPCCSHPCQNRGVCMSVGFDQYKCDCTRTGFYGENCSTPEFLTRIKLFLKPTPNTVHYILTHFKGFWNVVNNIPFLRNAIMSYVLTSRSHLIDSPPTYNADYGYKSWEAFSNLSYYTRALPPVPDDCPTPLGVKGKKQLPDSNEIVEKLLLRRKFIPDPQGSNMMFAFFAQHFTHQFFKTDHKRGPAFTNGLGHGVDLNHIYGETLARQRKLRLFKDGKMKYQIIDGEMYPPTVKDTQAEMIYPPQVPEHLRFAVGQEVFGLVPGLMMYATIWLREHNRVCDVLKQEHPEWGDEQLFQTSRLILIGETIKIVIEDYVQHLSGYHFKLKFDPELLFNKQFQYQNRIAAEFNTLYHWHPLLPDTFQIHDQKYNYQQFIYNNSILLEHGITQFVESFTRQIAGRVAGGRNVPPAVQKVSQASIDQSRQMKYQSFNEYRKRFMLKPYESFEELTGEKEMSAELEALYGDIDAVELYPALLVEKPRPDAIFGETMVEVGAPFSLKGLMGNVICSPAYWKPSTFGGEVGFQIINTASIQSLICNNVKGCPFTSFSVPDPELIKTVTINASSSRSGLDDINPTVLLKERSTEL

COc1c(-c2ccc(O[C@@H]3O[C@H](CO)[C@@H](O)[C@H](O)[C@H]3O)c(O)c2)oc2cc(O[C@@H]3O[C@H](CO)[C@@H](O)[C@H](O)[C@H]3O)cc(O)c2c1=O [quercetin-3-methoxy-4′-glucosyl-7-glucoside]
IC50 (COX-1): 4.31 µM | IC50 (COX-2): 3.11 µM
